Assay results taken from ChEMBL document CHEMBL1135375, “Synthesis and biological activities of YkFA analogues: effects of position 4 substitutions and altered ring size on in vitro opioid activity” (Bioorg Med Chem Lett, 2002).

What was measured:
[1] = target: Delta-type opioid receptor (Mus musculus, UniProt P32300); assay: Concentration required for 50% inhibition of electrically induced contraction of the mouse vas deferens mediated through delta opioid receptor; assay type: functional
Mu-type opioid receptor = Mu-type opioid receptor (Cavia porcellus, UniProt P97266); assay: Concentration required for 50% inhibition of electrically induced contraction of the guinea pig ileum mediated through mu opioid receptor; assay type: functional, tissue-based
[2] = tested on: Opioid receptors; mu & delta; assay: Selectivity ratio against mu opioid receptor to that of delta opioid receptor was determined

Delta-type opioid receptor, sequence (P32300 whole entry): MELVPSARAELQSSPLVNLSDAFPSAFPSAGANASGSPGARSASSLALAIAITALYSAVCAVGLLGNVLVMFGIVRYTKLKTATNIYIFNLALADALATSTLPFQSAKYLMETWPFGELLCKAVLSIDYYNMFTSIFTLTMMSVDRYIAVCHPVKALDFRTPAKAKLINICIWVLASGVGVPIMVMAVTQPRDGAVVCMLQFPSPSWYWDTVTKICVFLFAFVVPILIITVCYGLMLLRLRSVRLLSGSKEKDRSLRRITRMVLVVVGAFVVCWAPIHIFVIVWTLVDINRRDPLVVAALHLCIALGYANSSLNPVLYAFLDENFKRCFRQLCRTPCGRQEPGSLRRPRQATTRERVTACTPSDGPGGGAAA
Mu-type opioid receptor, sequence (P97266 whole entry): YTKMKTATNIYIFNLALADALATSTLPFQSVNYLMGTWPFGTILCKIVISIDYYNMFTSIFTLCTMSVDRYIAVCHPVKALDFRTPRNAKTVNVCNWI

Row | Compound | IC50 [1] | IC50 (Mu-type opioid receptor) | Ratio [2]
1 | CC[C@H](C)[C@@H]1NC(=O)[C@H](Cc2ccccc2)NC(=O)[C@@H](CCCCN)N(C(=O)[C@@H](N)Cc2ccc(O)cc2)C1=O | 6.3 nM | 1.1 nM | –
2 | C[C@@H]1NC(=O)[C@H](Cc2ccccc2)NC(=O)[C@@H](CCCCN)N(C(=O)[C@@H](N)Cc2ccc(O)cc2)C1=O | 0.54 nM | 0.11 nM | –
3 | CC(C)[C@@H]1NC(=O)[C@H](Cc2ccccc2)NC(=O)[C@@H](CCCCN)N(C(=O)[C@@H](N)Cc2ccc(O)cc2)C1=O | 0.44 nM | 0.2 nM | –
4 | NCCCC[C@@H]1C(=O)N[C@@H](Cc2ccccc2)C(=O)N[C@@H](CC(=O)O)C(=O)N1C(=O)[C@@H](N)Cc1ccc(O)cc1 | 73.8 nM | 78.8 nM | –
5 | CC[C@@H](C)[C@H]1NC(=O)[C@H](Cc2ccccc2)NC(=O)[C@H](CCCCN)N(C(=O)[C@@H](N)Cc2ccc(O)cc2)C1=O | – | – | 6
6 | CC(C)[C@H]1NC(=O)[C@H](Cc2ccccc2)NC(=O)[C@H](CCCCN)N(C(=O)[C@@H](N)Cc2ccc(O)cc2)C1=O | – | – | 2.2
7 | NCCCC[C@H]1C(=O)N[C@@H](Cc2ccccc2)C(=O)N[C@H](CC(=O)O)C(=O)N1C(=O)[C@@H](N)Cc1ccc(O)cc1 | – | – | 0.94
8 | C[C@H]1NC[C@H](Cc2ccccc2)NC(=O)[C@H](CCN)N(C(=O)[C@@H](N)Cc2ccc(O)cc2)C1=O | 252 nM | 21.4 nM | 12
9 | CC(C)C[C@H]1NC(=O)[C@H](Cc2ccccc2)NC(=O)[C@H](CCCCN)N(C(=O)[C@@H](N)Cc2ccc(O)cc2)C1=O | – | – | 4.5
10 | C[C@@H]1NC(=O)[C@H](Cc2ccccc2)NC(=O)[C@@H](CCN)N(C(=O)[C@@H](N)Cc2ccc(O)cc2)C1=O | 40 nM | 3.5 nM | –
11 | CC(C)C[C@@H]1NC(=O)[C@H](Cc2ccccc2)NC(=O)[C@@H](CCCCN)N(C(=O)[C@@H](N)Cc2ccc(O)cc2)C1=O | 6.2 nM | 1.4 nM | –
12 | C[C@H]1NC(=O)[C@H](Cc2ccccc2)NC(=O)[C@H](CCCCN)N(C(=O)[C@@H](N)Cc2ccc(O)cc2)C1=O | – | – | 4.9
13 | C[C@H]1NC(=O)[C@H](Cc2ccccc2)NC(=O)[C@H](CCN)N(C(=O)[C@@H](N)Cc2ccc(O)cc2)C1=O | – | – | 12
